Data taken from a melting point compilation (Tetko et al.; mined from patent text by program, amines drawn as free bases though some values may be those of a salt).

SMILES | melting point
O=C(O)c1nc(CCCc2ccccc2)c[nH]1 | 148 to 150 °C
Brc1cccc(Sc2ncccc2OCCCc2cccnc2)c1 | 75 to 76 °C
N#Cc1ccc(C(=O)N2CCc3c([nH]c4ccccc34)C2)cc1 | 228 to 232 °C
COC(=O)c1nc(Br)nc(Br)c1Cl | 92 to 93 °C
CC(C)(C)OC1CCC2(C)C(=CCC3C4CCC(=O)C4(C)CCC32)C1 (stereo unspecified) | 185 to 187 °C
O=[N+]([O-])c1ccc2c(C3=CN4CCC3CC4)c[nH]c2c1 | 274 to 276 °C
Cn1c(C(F)(F)F)cc(=O)n(-c2ccc3snc(COCC(=O)NS(C)(=O)=O)c3c2)c1=O | > 240 °C
COC(=O)c1sc2ccc(SC)cc2c1N(C)C | 63 to 66 °C
CC(C)(C)OC(=O)NCCON=C(C(=O)O)c1cccs1 | 113 to 114 °C
COc1ccc(CC(N)=O)cc1C(=O)NCc1ccc(C(F)(F)F)cc1 | 192 to 193 °C
Cc1cccc(-n2cc(CC(=O)O)c(-c3ccc(Cl)cc3)n2)c1 | 129 to 130 °C
Cc1cccc2c1nc(-c1ccccc1[N+](=O)[O-])n2CC(O)C(C)(C)C (stereo unspecified) | 204 °C
N#CCCN1CCC2C(C1)c1ccccc1N2c1ccccc1 (stereo unspecified) | 108 °C
O=C(CCl)NC1(c2ccccc2Cl)C(=O)Nc2ccc(Cl)cc21 (stereo unspecified) | 230 °C
O=C(c1cccc(OC(F)(F)F)c1)N1CCc2cc(S(=O)(=O)N3CC(c4ccccc4)NC3=O)ccc21 (stereo unspecified) | 129 to 131 °C
CCOc1cc(N(CC)CC)ccc1C1(N(c2ccc(N(C)C)cc2)c2ccc(N(C)C)cc2)OC(=O)c2ccccc21 (stereo unspecified) | 58 to 69 °C
COc1ccc(N2c3ccccc3Sc3ccccc32)cc1 | 173 to 176 °C
COC(=O)C1Oc2ccc(Cl)cc2C(C)(c2ccccc2)O1 (stereo unspecified) | 114 to 115 °C
Cc1ccc(Cc2c[nH]c(=S)[nH]c2=O)cn1 | 240 to 241 °C
CC(C)(C)c1ccc(/C=C/C(=O)Nc2ccc3ncoc3c2)cc1 | 147 to 148 °C
COC(=O)C1=C(COCC(C)n2c(C)nc(C)c2C)Nc2c(c(=O)n(C)c(=O)n2C)C1c1ccccc1Cl (stereo unspecified) | 180 to 182 °C
CC(=O)OC1CSC(Oc2ccc3cc[nH]c3c2)C(OC(C)=O)C1OC(C)=O (stereo unspecified) | 172 to 175 °C
COC(=O)[C@]12OC(=O)C[C@H]1S[C@@H]1[C@H](NC(=O)COc3ccccc3)C(=O)N12 | 182 to 184 °C
Cc1ccc(N(C)S(=O)(=O)c2cccs2)c2[nH]c(-c3ncc(CN4CCC(O)C4)s3)cc12 (stereo unspecified) | 190 to 191 °C

SMILES | melting point
N[C@H]1CC[C@H](CC(=O)N2CCN(c3ccccc3)CC2)CC1 | 90 to 93 °C
C[Si](C)(C)C#CC1(OC(=O)c2ccccc2)C(COC(=O)c2ccc(Cl)cc2)OC(OC(=O)c2ccccc2)C1OC(=O)c1ccccc1 (stereo unspecified) | 63 to 66 °C
CCc1cnc2c(c1)C=Cc1cccnc1N2 | 95 to 97 °C
COC(=O)Nc1nc2cc(S(=O)CC3CC3)ccc2[nH]1 (stereo unspecified) | 223 to 224 °C
COc1ccc(-c2cc(C(Cl)Cl)nn2-c2ccc(S(N)(=O)=O)cc2)cc1F | 190 to 193 °C
CC(=O)Nc1cc(C(=O)O)cc(C(F)(F)F)c1 | 194 to 220 °C
CC(=O)c1ccccc1NC(C(N)=O)c1c(Cl)cccc1Cl (stereo unspecified) | 169 °C
Cc1ccc(C(C)(C)C)c(SC2=C(O)CC(CCc3ccccc3)(c3ccc(OCCN4CCNCC4)cc3)OC2=O)c1 (stereo unspecified) | 175 °C
CCn1nnc(-c2cccc(-c3ccnc4c(-c5cc(C)cc(C)c5)cnn34)c2)n1 | 65 °C
Cc1ccc(-c2oncc2CCC(=O)O)cc1 | 121 to 122 °C
O=C1CNCCN1CCc1ccccc1 | 75 to 78 °C
CC(C)c1ccc2nc(Cl)cn2n1 | 69 to 71 °C
CC(C)(C)OC(=O)N1CCn2c(c(C(N)=S)c(Cl)c2-c2cccnc2)C1 | 220 to 221 °C
NC(=O)c1cnn2c1NCC=C2c1cccc(F)c1 | 122 to 125 °C
CCN(CC)CC1(C(F)(F)F)c2cc(Cl)ccc2Nc2ncccc21 (stereo unspecified) | 115 to 117 °C
CCOc1nn(Cc2ccc(OC3CCN(c4ccccn4)CC3)cc2)cc1CCC(=O)O | 142 to 143 °C
[N-]=[N+]=C1c2cc(F)ccc2-c2ccc(F)cc21 | 148 to 150 °C
N#CC(=CN1CCOCC1)Cc1ccc2c(c1)OCO2 | 85 to 85.5 °C
CC1Oc2cc(F)c(N)cc2NC1=O (stereo unspecified) | 208 to 211 °C
O=C(c1ccc(CNc2ncnc3ccccc23)cc1)N1CCN(c2ncc(Cc3ccccc3)cn2)CC1 | 99 to 101 °C
O=[N+]([O-])c1c(OS(=O)(=O)C(F)(F)F)nc2ccccc2c1OS(=O)(=O)C(F)(F)F | 74.5 to 76 °C
COc1ccc(Nc2cncc(-c3cccc(NC(=O)c4ccccc4)c3)c2)cc1 | 135 to 140 °C
CNc1cc2c(cc1C)c(=O)c(C(=O)O)cn2-c1cc(N)c(F)cc1F | > 280 °C
CCOC(=O)c1cnn2c1nc(OCCC(C)C)c1cnc3c(cnn3CC)c12 | 117 to 118 °C

SMILES | melting point
Cc1ccc(P2(=O)c3ccccc3CN2c2ccccc2)cc1 (stereo unspecified) | 180 to 181 °C
O=C(NC(=O)c1ccccc1)NC1CCN(CC(=O)C2COc3ccccc3O2)CC1 (stereo unspecified) | 160 to 161 °C
CC(C)(C)CC(=O)c1c(CC(C)(C)C(=O)O)n(Cc2ccc(Cl)cc2)c2ccc(OCc3ccc4ccccc4n3)cc12 | 183 to 184 °C
O=C1CCc2ccc(OCCCl)cc21 | 76 to 80 °C
O=S(=O)(Nc1ccc2c(OCc3ccc(-c4ccc(Cl)c(Cl)c4)cc3F)cccc2c1)C(F)(F)F | 172 to 174 °C
CCOC(=O)C=CC=Cc1cccc([N+](=O)[O-])c1 | 100 to 101 °C
CC(C)(C)OC(=O)Cc1c(Cl)nc(N)nc1C#N | 107 to 109 °C
COC(=O)c1ccccc1CC(=O)Nc1cccc(/C=C/c2nc(C3CCC3)cs2)c1 | 143 to 144 °C
Cc1cc(Cl)ccc1NC=NO | 171 to 172 °C
O=C(Nc1ccc(-n2nc(C(F)(F)F)cc2C(F)(F)F)cc1)C1CC=CCC1 (stereo unspecified) | 177 to 178 °C
CC(=O)OC1CSC(Oc2ccc(I)nc2F)C(OC(C)=O)C1OC(C)=O (stereo unspecified) | 234 °C
COc1ccc(-c2c(-c3ccc(S(C)(=O)=O)cc3)[nH]c3ccccc23)cc1 | 218 to 220 °C
CCc1nc2ccc(F)cc2c(OC(=O)C2CC2)c1C | 86 to 87 °C
COc1ccc2c(C)c(CCCl)c(=O)oc2c1OC | 137 to 139 °C
CCCC1=C(C(=O)OCC)C(c2sccc2C)c2c[nH]nc2N1 (stereo unspecified) | 125 °C
OC[C@H]1O[C@@H]1c1ccc(Cl)cc1 | 59 to 68 °C
O=C(O)C1=Cc2cc(Cl)cc(COCc3ccccc3)c2OC1C(F)(F)F (stereo unspecified) | 134 to 135 °C
COc1ccc(C)cc1N1CCN(C(=O)Nc2cc3ccccc3nc2OC)CC1 | 115 to 116 °C
Cc1cc2c(cc1S(N)(=O)=O)S(=O)(=O)NC(C1CCCCC1)N2 (stereo unspecified) | 231 to 233 °C
O=[N+]([O-])c1ccccc1-c1ccc(CBr)cc1 | 109 to 110 °C
CC(=O)NCc1ccc(/C=C/C(c2cc(Cl)cc(Cl)c2)C(F)(F)F)cc1Cl (stereo unspecified) | 127 to 128 °C
COC(=O)COCc1cc(C(C)(C)C)c(O)c(C(C)(C)C)c1 | 132 to 133 °C
CC1(C)CC(=O)c2c(O)cc(C=Cc3ccccc3)cc2O1 | 116 °C
